From ChEMBL document CHEMBL3352567, “Radiosynthesis and ex vivo evaluation of [(18)F]-(S)-3-(6-(3-fluoropropoxy)benzo[d]isoxazol-3-yl)-5-(methoxymethyl)oxazolidin-2-one for imaging MAO-B with PET” (Bioorg Med Chem Lett, 2015)
Values belong to the molecule of their own block, whether it stands above or below them.

Experiments:
Striatum [1] = assay: Drug uptake in conscious Sprague-Dawley rat striatum at < 10 nmol/kg, tail-vein injections at 40 mins in presence of 2 mg/kg, ip L-deprenyl inhibitor for 1 hr; assay type: ADME, organism-based; set-up: dose 2 mg/kg, route intraperitoneal; conditions: in vivo
Cortex [2] = assay: Drug uptake in conscious Sprague-Dawley rat cortex at < 10 nmol/kg, tail-vein injections at 15 mins in presence of 2 mg/kg, ip L-deprenyl inhibitor for 1 hr; assay type: ADME, organism-based; set-up: dose 2 mg/kg, route intraperitoneal; conditions: in vivo, 0.25 h
Cerebellum [3] = assay: Drug uptake in conscious Sprague-Dawley rat cerebellum at < 10 nmol/kg, tail-vein injections at 2 mins; assay type: ADME, tissue-based; conditions: in vivo, iv
Striatum [4] = assay: Drug uptake in conscious Sprague-Dawley rat striatum at < 10 nmol/kg, tail-vein injections at 15 mins in presence of 2 mg/kg, ip L-deprenyl inhibitor for 1 hr; assay type: ADME, organism-based; set-up: dose 2 mg/kg, route intraperitoneal; conditions: in vivo, 0.25 h
Cerebellum [5] = assay: Drug uptake in conscious Sprague-Dawley rat cerebellum at < 10 nmol/kg, tail-vein injections at 40 mins; assay type: ADME, tissue-based; conditions: in vivo, iv
Cerebellum [6] = assay: Drug uptake in conscious Sprague-Dawley rat cerebellum at < 10 nmol/kg, tail-vein injections at 15 mins in presence of 2 mg/kg, ip L-deprenyl inhibitor for 1 hr; assay type: ADME, organism-based; set-up: dose 2 mg/kg, route intraperitoneal; conditions: in vivo, 0.25 h
Brain [7] = assay: Drug uptake in conscious Sprague-Dawley rat brain region at < 10 nmol/kg, tail-vein injections at 40 mins in presence of 2 mg/kg, ip L-deprenyl inhibitor for 1 hr; assay type: ADME, organism-based; set-up: dose 2 mg/kg, route intraperitoneal; conditions: in vivo
Cortex [8] = assay: Drug uptake in conscious Sprague-Dawley rat cortex at < 10 nmol/kg, tail-vein injections at 2 mins; assay type: ADME, tissue-based; conditions: in vivo, iv
Cortex [9] = assay: Drug uptake in conscious Sprague-Dawley rat cortex at < 10 nmol/kg, tail-vein injections at 40 mins in presence of 2 mg/kg, ip L-deprenyl inhibitor for 1 hr; assay type: ADME, organism-based; set-up: dose 2 mg/kg, route intraperitoneal; conditions: in vivo
Brain [10] = assay: Drug uptake in conscious Sprague-Dawley rat brain region at < 10 nmol/kg, tail-vein injections at 40 mins; assay type: ADME, tissue-based; conditions: in vivo, iv
Brain [11] = assay: Drug uptake in conscious Sprague-Dawley rat brain region at < 10 nmol/kg, tail-vein injections at 15 mins; assay type: ADME, tissue-based; conditions: in vivo, iv, 0.25 h
Striatum [12] = assay: Drug uptake in conscious Sprague-Dawley rat striatum at < 10 nmol/kg, tail-vein injections at 15 mins; assay type: ADME, tissue-based; conditions: in vivo, iv, 0.25 h
Striatum [13] = assay: Drug uptake in conscious Sprague-Dawley rat striatum at < 10 nmol/kg, tail-vein injections at 40 mins; assay type: ADME, tissue-based; conditions: in vivo, iv
Brain [14] = assay: Drug uptake in conscious Sprague-Dawley rat brain region at < 10 nmol/kg, tail-vein injections at 2 mins; assay type: ADME, tissue-based; conditions: in vivo, iv
Cortex [15] = assay: Drug uptake in conscious Sprague-Dawley rat cortex at < 10 nmol/kg, tail-vein injections at 15 mins; assay type: ADME, tissue-based; conditions: in vivo, iv, 0.25 h
Bone [16] = assay: Drug metabolism in conscious Sprague-Dawley rat bone assessed as parent drug level at < 10 nmol/kg, tail-vein injections at 2 mins; assay type: ADME, tissue-based, Bone element; conditions: in vivo, iv
[17] = Plasma concentration in conscious Sprague-Dawley rat plasma assessed as radiotracer at < 10 nmol/kg, tail-vein injections at 40 mins; assay type: ADME, cell-free; conditions: iv, read-out: Stability
Brain [18] = assay: Drug uptake in conscious Sprague-Dawley rat brain region at < 10 nmol/kg, tail-vein injections at 15 mins in presence of 2 mg/kg, ip L-deprenyl inhibitor for 1 hr; assay type: ADME, organism-based; set-up: dose 2 mg/kg, route intraperitoneal; conditions: in vivo, 0.25 h
Cerebellum [19] = assay: Drug uptake in conscious Sprague-Dawley rat cerebellum at < 10 nmol/kg, tail-vein injections at 40 mins in presence of 2 mg/kg, ip L-deprenyl inhibitor for 1 hr; assay type: ADME, organism-based; set-up: dose 2 mg/kg, route intraperitoneal; conditions: in vivo
Striatum [20] = assay: Drug uptake in conscious Sprague-Dawley rat striatum at < 10 nmol/kg, tail-vein injections at 2 mins; assay type: ADME, tissue-based; conditions: in vivo, iv
Cerebellum [21] = assay: Drug uptake in conscious Sprague-Dawley rat cerebellum at < 10 nmol/kg, tail-vein injections at 15 mins; assay type: ADME, tissue-based; conditions: in vivo, iv, 0.25 h
Bone [22] = assay: Drug metabolism in conscious Sprague-Dawley rat bone assessed as parent drug level at < 10 nmol/kg, tail-vein injections at 40 mins; assay type: ADME, tissue-based, Bone element; conditions: in vivo, iv
Cortex [23] = assay: Drug uptake in conscious Sprague-Dawley rat cortex at < 10 nmol/kg, tail-vein injections at 40 mins; assay type: ADME, tissue-based; conditions: in vivo, iv
[24] = Plasma concentration in conscious Sprague-Dawley rat plasma assessed as radiotracer at < 10 nmol/kg, tail-vein injections at 2 mins; assay type: ADME; conditions: iv, read-out: Stability
[25] = target: T1, Amine oxidase [flavin-containing] B (Homo sapiens, UniProt P27338); assay: Inhibition of human recombinant MAO-B by luminescence analysis
T1 sequence (P27338 whole entry): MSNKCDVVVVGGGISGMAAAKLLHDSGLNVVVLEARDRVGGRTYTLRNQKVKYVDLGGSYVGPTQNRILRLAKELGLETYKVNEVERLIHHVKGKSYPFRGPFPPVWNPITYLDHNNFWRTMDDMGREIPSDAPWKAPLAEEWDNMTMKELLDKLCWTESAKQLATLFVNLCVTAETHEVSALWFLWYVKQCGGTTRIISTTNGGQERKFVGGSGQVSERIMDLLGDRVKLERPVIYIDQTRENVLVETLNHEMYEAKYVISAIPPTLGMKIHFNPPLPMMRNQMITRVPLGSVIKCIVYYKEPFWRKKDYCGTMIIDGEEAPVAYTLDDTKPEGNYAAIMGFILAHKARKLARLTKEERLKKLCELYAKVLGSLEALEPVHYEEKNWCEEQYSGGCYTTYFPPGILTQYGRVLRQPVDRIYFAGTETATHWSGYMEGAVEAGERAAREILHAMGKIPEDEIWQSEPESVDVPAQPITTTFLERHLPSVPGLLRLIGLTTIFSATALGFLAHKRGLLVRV

[26] = n-Octanol-phosphate buffered saline distribution coefficient, log D of the compound at pH 7.4 by shake flask method; assay type: physicochemical
Homo sapiens = species on record: Homo sapiens; assay: Selectivity index, ratio of IC50 for human recombinant MAO-B to IC50 for human recombinant MAO-A

Structure (SMILES): COC[C@@H]1CN(c2noc3cc(OCCC[18F])ccc23)C(=O)O1
- SUV (Striatum [1]): 0.2
- SUV (Cortex [2]): 0.5
- SUV (Cerebellum [3]): 1.7
- SUV (Striatum [4]): 0.5
- SUV (Cerebellum [5]): 0.19
- SUV (Cerebellum [6]): 0.5
- SUV (Brain [7]): 0.2
- SUV (Cortex [8]): 1.7
- SUV (Cortex [9]): 0.2
- SUV (Brain [10]): 0.19
- SUV (Brain [11]): 0.51
- SUV (Striatum [12]): 0.51
- SUV (Striatum [13]): 0.19
- SUV (Brain [14]): 1.7
- SUV (Cortex [15]): 0.51
- SUV (Bone [16]): 0.45
- remaining at 40 min [17]: 33%
- SUV (Brain [18]): 0.5
- SUV (Cerebellum [19]): 0.2
- SUV (Striatum [20]): 1.7
- SUV (Cerebellum [21]): 0.51
- SUV (Bone [22]): 3.1
- SUV (Cortex [23]): 0.19
- remaining at 2 min [24]: 90%

Structure (SMILES): COC[C@@H]1CN(c2noc3cc(OCCCCF)ccc23)C(=O)O1
- IC50 [25]: 0.12 µM
- Ratio IC50 (Homo sapiens): 54

Structure (SMILES): COC[C@@H]1CN(c2noc3cc(OCCCF)ccc23)C(=O)O1
- IC50 [25]: 0.33 µM
- logD [26]: 2.6
- Ratio IC50 (Homo sapiens): 6

Other lines, results leading:

- IC50 [25]: 0.047 µM
- logD [26]: 3.34
- Ratio IC50 (Homo sapiens): 4680
Structure (SMILES): COC[C@@H]1CN(c2noc3cc(OCCCC(F)(F)F)ccc23)C(=O)O1

- IC50 [25]: 0.11 µM
- Ratio IC50 (Homo sapiens): 7730
Structure (SMILES): COC[C@@H]1CN(c2noc3cc(OCCCCCF)ccc23)C(=O)O1
